Reference: US20060110456A1, “Method for biocidal and/or biostatic treatment and compositions therefor” (NATIONAL UNIVERSITY OF SINGAPORE, priority 2004, published 2006)
Structures can show the parent of a compound that is named as a salt.

Experiments:
marine bacteria = assay: Growth assay (absorbance, 96-well plates); assay type: cell-based, marine bacteria isolated from Singapore fouling communities; conditions: for Number of strains with strongly inhibited growth / Inhibition of bacterial growth: 25 μg ml^−1; for Number of strains with strongly inhibited growth: 25 strains of Table 5
Procedure: The dried powder was re-suspended in sterile deionized water and made up to 2 mg ml^−1.
The same bacterial strains were used and cultured the same way as in disc inhibition assay. Cells were harvested by centrifugation at 300 rpm for 10 min. The supernatant was discarded and the pellet re-suspended using sterile seawater collected from St. John's island, Singapore. The concentration of bacterial cells was adjusted to an absorbance of approximately 0.6 using a spectrophotometer (Beckman DU530) at wavelength 600 nm.
The growth with response to the pharmaceuticals was assumed to be proportional to the absorbance of the bacteria. […] To each well 25 μl of each drug solution (concentration adjusted to 100 μg ml^−1) were pipetted into three wells followed by 10 μl of broth and 65 μl of sterile seawater. For wells that were to contain bacteria, 60 μl of sterile seawater was used instead. All wells used for growth studies were prepared in triplicate and inoculated with 5 μl of the bacterial suspension. Blanks consisting of the respective volumes of pharmaceutical with Marine Broth and distilled water, if needed, were prepared in triplicate and inoculated with 5 μl of sterile seawater.
The absorbance (A600) of each well was read in a plate reader (Sunrise Tecan Model F039300) immediately (time=0 hours) and after 1, 2, 3, 4, 20, 23 and 28 hours. Plates were incubated overnight inside a moistened airtight container.
Any changes in absorbance were plotted and compared with control. The mean absorbance (mean bac) from the bacteria was obtained by deducting the absorbance values of blank wells (containing seawater and broth only) from that for the control wells (containing bacteria in seawater and broth only). The absorbance arising from the drugs was obtained from the 0 hr reading for wells containing drugs and bacteria, minus the wells with drugs alone (mean “drug”). The growth assays were repeated three times.

[1] = tested on: hard fouling (barnacles, serpulids, spirorbids); assay: Field testing of coated rods; assay type: in vivo; design: Total hard fouling, difference in mean cover (%), drug vs control / Barnacles, difference in mean cover (%), drug vs control: tested at 25 µg/ml of coating; Serpulids, difference in mean cover (%), drug vs control: tested at 25 µg/ml of coating mix; conditions: for Overall performance in field assay: crude rank, best (1) to worst (8); for Barnacles, difference in mean cover (%), drug vs VC50 / Serpulids, difference in mean cover (%), drug vs VC50 / Spirorbids, difference in mean cover (%), drug vs VC50 / Total hard fouling, difference in mean cover (%), drug vs VC50: drug + VC50 rods vs VC50 control; for Barnacles, difference in mean cover (%), drug vs control / Serpulids, difference in mean cover (%), drug vs control / Spirorbids, difference in mean cover (%), drug vs control / Total hard fouling, difference in mean cover (%), drug vs control: drug + VC50 rods vs uncoated blank control; for Reduction of total hard fouling cover compared to VC50 alone / Effect of addition of drug on antifouling performance of VC50 coating (total hard fouling): drug at 25 ug per ml of VC50 coating; for Effect of addition of drug on antifouling performance of VC50 coating (total hard fouling): in words; for Barnacles Mean cover (%) / Serpulids Mean cover (%) / Spirorbids Mean cover (%) / Total hard fouling Mean cover (%): rods coated with drug + VC50, field test; for Total hard fouling Mean cover (%): percentage cover within 6 mm×50 mm transect
Procedure: Fouling on rods occurs more rapidly than on flat panels, enabling rapid assessment of the performance of coatings.
6 mm diameter glass rods were cut to 150 mm length and prepared prior to coating by baking in a furnace at 150° C. for 24 hours and then cooling in a dessicator.
All pharmaceuticals were obtained in commercially available form. All tablets were reduced to fine powder with a mortar and pestle, and capsules were opened to extract the contents. The amount of drug powder required to attain the desired concentrations for all tests was calculated from product dosage information and then measured by weight on a high-resolution electronic balance. This was added to the coating and mixed thoroughly prior to application to obtain the concentration of 25 ug active ingredient per ml of coating mix.
The commercial antifouling product used to benchmark field experiments was VC Offshore with Teflon® manufactured by International Coatings.
For our experiments, a reduced copper coating (“VC50”) was prepared by mixing approximately 20 g of #YBA779 into 100 ml of #YBA707. The prepared coating was then allowed to stand so that bubbles from the mixing process dissipated. 15 ml centrifuge tubes were filled with 10 mls of prepared coating. Prepared glass rods were then immersed in the coating to a height of 100 mm and then suspended on a frame to air dry until coating cured.
Five replicate rods were tested for every experimental treatment, including controls. Two sets of controls were used, an uncoated blank control and a VC50 control without pharmaceutical additives. Rod were randomly arrayed on plastic vexar mesh attached to PVC frames and suspended at a depth of 10 cm from the water surface. […] Rods were examined visually weekly for the duration of testing, which typically lasts between 6 to 10 weeks. All fouling was scored as percentage cover of each category within a 6 mm×50 mm transect on each rod.

What does the source list for CN1CCN(CCCN2c3ccccc3Sc3ccc(Cl)cc32)CC1 [PCZ, prochlorperazine maleate]?
Number of strains with strongly inhibited growth (marine bacteria): 11; Growth response (absorbance over time) (marine bacteria; 25 μg ml−1, strain named in the value): slight growth response of bacteria strain 11; Inhibition of bacterial growth (marine bacteria; strain 1 (Rhodovulum)): 0; Inhibition of bacterial growth (marine bacteria; strain 2 (Erythrobacter)): 0; Inhibition of bacterial growth (marine bacteria; strain 3 (Erythrobacter)): +++ (+++ denotes little or no growth, p < 0.001); Inhibition of bacterial growth (marine bacteria; strain 4 (Bacillus)): +++ (+++ denotes little or no growth, p < 0.001); Inhibition of bacterial growth (marine bacteria; strain 6 (Vibrio)): 0; Inhibition of bacterial growth (marine bacteria; strain 7 (Vibrio)): + (+ denotes growth present but inhibited, p < 0.01); Inhibition of bacterial growth (marine bacteria; strain 8 (Bacillus)): +++ (+++ denotes little or no growth, p < 0.001); Inhibition of bacterial growth (marine bacteria; strain 9 (Bacillus)): +++ (+++ denotes little or no growth, p < 0.001); Inhibition of bacterial growth (marine bacteria; strain 10 (Halobacillus)): +++ (+++ denotes little or no growth, p < 0.001); Inhibition of bacterial growth (marine bacteria; strain 11 (Pseudomonas)): + (+ denotes growth present but inhibited, p < 0.01); Inhibition of bacterial growth (marine bacteria; strain 12 (Gordonia)): +++ (+++ denotes little or no growth, p < 0.001); Inhibition of bacterial growth (marine bacteria; strain 13 (Bacillus)): +++ (+++ denotes little or no growth, p < 0.001); Inhibition of bacterial growth (marine bacteria; strain 14 (Vibrio)): 0; Inhibition of bacterial growth (marine bacteria; strain 16 (Pseudoalteromonas)): 0; Inhibition of bacterial growth (marine bacteria; strain 17 (Gordonia)): +++ (+++ denotes little or no growth, p < 0.001); Inhibition of bacterial growth (marine bacteria; strain 18 (Microbacterium)): +++ (+++ denotes little or no growth, p < 0.001); Inhibition of bacterial growth (marine bacteria; strain 19 (Erythrobacter)): +++ (+++ denotes little or no growth, p < 0.001); Inhibition of bacterial growth (marine bacteria; strain 20): + (+ denotes growth present but inhibited, p < 0.01); Inhibition of bacterial growth (marine bacteria; strain 21): 0; Inhibition of bacterial growth (marine bacteria; strain 24): 0; Inhibition of bacterial growth (marine bacteria; strain 26): 0; Inhibition of bacterial growth (marine bacteria; strain 27): + (+ denotes growth present but inhibited, p < 0.01); Inhibition of bacterial growth (marine bacteria; strain 28): 0; Inhibition of bacterial growth (marine bacteria; strain 29): + (+ denotes growth present but inhibited, p < 0.01); Inhibition of bacterial growth (marine bacteria; strain 30): +++ (+++ denotes little or no growth, p < 0.001); Overall performance in field assay [1]: 7; Barnacles, difference in mean cover (%), drug vs VC50 [1]: −7.67%; Serpulids, difference in mean cover (%), drug vs VC50 [1]: −1.67%; Spirorbids, difference in mean cover (%), drug vs VC50 [1]: −6.66%; Total hard fouling, difference in mean cover (%), drug vs VC50 [1]: −16%; Barnacles, difference in mean cover (%), drug vs control [1]: −70.67%; Serpulids, difference in mean cover (%), drug vs control [1]: −3.33%; Spirorbids, difference in mean cover (%), drug vs control [1]: +15%; Total hard fouling, difference in mean cover (%), drug vs control [1]: −58%; Reduction of total hard fouling cover compared to VC50 alone [1]: 16%; Effect of addition of drug on antifouling performance of VC50 coating (total hard fouling) [1]: this reduction was not statistically significant; Barnacles Mean cover (%) [1]: 22.33%; Serpulids Mean cover (%) [1]: 0%; Spirorbids Mean cover (%) [1]: 16.67%; Total hard fouling Mean cover (%) [1]: 39%

How did the “Number of strains with strongly inhibited growth” value (marine bacteria) turn out when CNCCC(Oc1ccc(C(F)(F)F)cc1)c1ccccc1 (centres unmarked) [PZC, fluoxetine hydrochloride] was run?
The value was 3.

And the “Inhibition of bacterial growth” value (marine bacteria; strain 1 (Rhodovulum))?
The value was 0.

What about the “Inhibition of bacterial growth” value (marine bacteria; strain 2 (Erythrobacter)) of the same compound?
The value was “+ (+ denotes growth present but inhibited, p < 0.01)”.

And the “Inhibition of bacterial growth” value (marine bacteria; strain 3 (Erythrobacter))?
Its value is “+ (+ denotes growth present but inhibited, p < 0.01)”.

What about the “Inhibition of bacterial growth” value (marine bacteria; strain 4 (Bacillus)) of the same compound?
Its value is 0.

And the “Inhibition of bacterial growth” value (marine bacteria; strain 6 (Vibrio))?
The value was 0.

And the “Inhibition of bacterial growth” value (marine bacteria; strain 7 (Vibrio))?
Its value is “+ (+ denotes growth present but inhibited, p < 0.01)”.

What about the “Inhibition of bacterial growth” value (marine bacteria; strain 8 (Bacillus)) of the same compound?
The value was “+ (+ denotes growth present but inhibited, p < 0.01)”.

And the “Inhibition of bacterial growth” value (marine bacteria; strain 9 (Bacillus))?
The value was “+ (+ denotes growth present but inhibited, p < 0.01)”.

And the “Inhibition of bacterial growth” value (marine bacteria; strain 10 (Halobacillus))?
The value was “+++ (+++ denotes little or no growth, p < 0.001)”.

What about the “Inhibition of bacterial growth” value (marine bacteria; strain 11 (Pseudomonas)) of the same compound?
The value was “+ (+ denotes growth present but inhibited, p < 0.01)”.

What about the “Inhibition of bacterial growth” value (marine bacteria; strain 12 (Gordonia)) of the same compound?
The value was “+ (+ denotes growth present but inhibited, p < 0.01)”.

What about the “Inhibition of bacterial growth” value (marine bacteria; strain 13 (Bacillus)) of the same compound?
Its value is “+ (+ denotes growth present but inhibited, p < 0.01)”.

And the “Inhibition of bacterial growth” value (marine bacteria; strain 14 (Vibrio))?
Its value is 0.

What about the “Inhibition of bacterial growth” value (marine bacteria; strain 16 (Pseudoalteromonas)) of the same compound?
Its value is 0.

What about the “Inhibition of bacterial growth” value (marine bacteria; strain 17 (Gordonia)) of the same compound?
Its value is “+++ (+++ denotes little or no growth, p < 0.001)”.

And the “Inhibition of bacterial growth” value (marine bacteria; strain 18 (Microbacterium))?
The value was “+ (+ denotes growth present but inhibited, p < 0.01)”.

What about the “Inhibition of bacterial growth” value (marine bacteria; strain 19 (Erythrobacter)) of the same compound?
The value was “+ (+ denotes growth present but inhibited, p < 0.01)”.

And the “Inhibition of bacterial growth” value (marine bacteria; strain 20)?
The value was “+ (+ denotes growth present but inhibited, p < 0.01)”.

What about the “Inhibition of bacterial growth” value (marine bacteria; strain 21) of the same compound?
Its value is 0.

What about the “Inhibition of bacterial growth” value (marine bacteria; strain 24) of the same compound?
The value was 0.

And the “Inhibition of bacterial growth” value (marine bacteria; strain 26)?
Its value is 0.

What about the “Inhibition of bacterial growth” value (marine bacteria; strain 27) of the same compound?
Its value is “+ (+ denotes growth present but inhibited, p < 0.01)”.

What about the “Inhibition of bacterial growth” value (marine bacteria; strain 28) of the same compound?
Its value is 0.

What about the “Inhibition of bacterial growth” value (marine bacteria; strain 29) of the same compound?
Its value is “+ (+ denotes growth present but inhibited, p < 0.01)”.

What about the “Inhibition of bacterial growth” value (marine bacteria; strain 30) of the same compound?
Its value is “+++ (+++ denotes little or no growth, p < 0.001)”.

And the “Overall performance in field assay” value [1]?
Its value is 6.

What about the “Barnacles, difference in mean cover (%), drug vs VC50” value [1] of the same compound?
Its value is −14%.

What about the “Serpulids, difference in mean cover (%), drug vs VC50” value [1] of the same compound?
Its value is −1.67%.

And the “Spirorbids, difference in mean cover (%), drug vs VC50” value [1]?
The value was −7.67%.

And the “Total hard fouling, difference in mean cover (%), drug vs VC50” value [1]?
The value was −23.37%.

And the “Barnacles, difference in mean cover (%), drug vs control” value [1]?
Its value is −78.34%.

What about the “Serpulids, difference in mean cover (%), drug vs control” value [1] of the same compound?
Its value is −6.67%.

What about the “Spirorbids, difference in mean cover (%), drug vs control” value [1] of the same compound?
The value was “+3.33%”.

What about the “Total hard fouling, difference in mean cover (%), drug vs control” value [1] of the same compound?
The value was −81.67%.

And the “Reduction of total hard fouling cover compared to VC50 alone” value [1]?
The value was ~24%.

What about the “Effect of addition of drug on antifouling performance of VC50 coating (total hard fouling)” value [1] of the same compound?
The value was “did not significantly improve antifouling performance”.

And the “Barnacles Mean cover (%)” value [1]?
Its value is 9.33%.

What about the “Serpulids Mean cover (%)” value [1] of the same compound?
Its value is 0%.

And the “Spirorbids Mean cover (%)” value [1]?
The value was 9%.

What about the “Total hard fouling Mean cover (%)” value [1] of the same compound?
The value was 18.33%.
